According to PMC8289695 (Cell Reports, 2021):

System: SARS-CoV-2
Type: cell-based, strain USA_WA1/2020
Conditions: for time of addition: single treatment 1 h prior to infection, compound removed prior to infection: VPS34-IN1 and PIK-III at 5 μM

Row | Structure (SMILES) | time of addition: single treatment 1 h prior to infection, compound removed prior to infection | time of addition: dosing at 2 hpi or 4 hpi
1 | CC(C)(O)CNc1ncc(-c2ccnc(Nc3ccnc(Cl)c3)n2)c(CC2CC2)n1 [VPS34-IN1] | inhibited SARS-CoV-2 replication | –
2 | CCCCCCCCCCC[C@@H](C[C@@H]1OC(=O)[C@H]1CCCCCC)OC(=O)[C@H](CC(C)C)NC=O [orlistat] | minimal efficacy | remained inhibitory
3 | Nc1ncc(-c2ccnc(Nc3ccncc3)n2)c(CC2CC2)n1 [PIK-III] | inhibited SARS-CoV-2 replication | –
4 | CCC/C=C/C/C=C/C=C/C=N/NN=O [triacsin C] | minimal efficacy | remained inhibitory
